The record followed here is PMC4109017 (Nature Communications, 2014).

One assay concerns the target FALDH (K463X) (Homo sapiens, UniProt P51648). Kind of assay: fluorometric NADH formation, Michaelis-Menten fit. The conditions noted are these: 1 mM NAD, 25 mM sodium pyrophosphate pH 8.0, 0.1% Triton X-100, 37 °C. It is filed as biochemical.
Assay [1] deals with FALDH Q445X (without gatekeeper helix) (Homo sapiens, UniProt P51648). Kind of assay: fluorometric NADH formation, Michaelis-Menten fit. It is filed as biochemical. The note with it: 1 mM NAD, 25 mM sodium pyrophosphate pH 8.0, 0.1% Triton X-100, 37 °C.
Sequence of FALDH Q445X (without gatekeeper helix) (P51648 1-444): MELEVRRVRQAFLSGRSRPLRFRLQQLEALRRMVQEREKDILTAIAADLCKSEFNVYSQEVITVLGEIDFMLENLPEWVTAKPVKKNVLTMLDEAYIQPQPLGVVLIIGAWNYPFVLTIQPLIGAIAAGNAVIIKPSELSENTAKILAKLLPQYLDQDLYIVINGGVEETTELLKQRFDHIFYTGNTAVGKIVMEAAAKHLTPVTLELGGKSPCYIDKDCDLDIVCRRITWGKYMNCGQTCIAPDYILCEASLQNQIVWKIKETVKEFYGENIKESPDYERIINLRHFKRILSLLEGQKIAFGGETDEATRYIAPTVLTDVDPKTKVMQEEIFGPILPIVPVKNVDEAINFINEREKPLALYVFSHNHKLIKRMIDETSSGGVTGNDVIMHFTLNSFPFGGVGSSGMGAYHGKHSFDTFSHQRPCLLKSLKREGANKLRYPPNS

Sequence of FALDH (K463X) (P51648 1-462): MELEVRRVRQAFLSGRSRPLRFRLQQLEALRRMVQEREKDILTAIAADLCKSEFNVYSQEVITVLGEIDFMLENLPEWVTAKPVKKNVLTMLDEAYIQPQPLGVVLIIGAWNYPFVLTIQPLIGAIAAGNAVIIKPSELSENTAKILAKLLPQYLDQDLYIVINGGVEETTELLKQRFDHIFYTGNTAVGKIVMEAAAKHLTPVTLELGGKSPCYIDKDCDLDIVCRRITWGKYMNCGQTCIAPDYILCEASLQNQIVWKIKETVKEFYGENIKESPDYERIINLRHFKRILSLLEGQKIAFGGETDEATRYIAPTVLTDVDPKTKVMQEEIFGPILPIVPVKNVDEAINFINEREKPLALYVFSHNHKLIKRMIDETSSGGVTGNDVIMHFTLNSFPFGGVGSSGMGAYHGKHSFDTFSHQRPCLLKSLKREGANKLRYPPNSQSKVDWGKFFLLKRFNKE

In the case of `CCCCCCCCCCCC=O` [dodecanal], the Vmax/KM result on FALDH (K463X) was “metabolize octanal, dodecanal and hexadecanal”; in assay [1], “longer fatty aldehydes docecanal (C12) and hexadecanal (C16) were used as substrates”.
Regarding `CCCCCCCCCCCCCCCC=O` [hexadecanal], the Vmax/KM result at FALDH (K463X) was “metabolize octanal, dodecanal and hexadecanal”.
